From paper PMC5578959, “Selective LRRK2 kinase inhibition reduces phosphorylation of endogenous Rab10 and Rab12 in human peripheral mononuclear blood cells” (Scientific Reports, 2017)

Experiments:
[1] = test system: T1, total LRRK2; assay: Western Blot, cultured immune stimulated human PBMCs; format: cell-based; settings: 100 nM; 24hr; PMA/INF-γ stimulated PBMCs, 3 DIV
T1 construct: human primary cells expressing endogenous levels of LRRK2; endogenous in cells; host or cells: human PBMCs from healthy donors

[2] = test system: Rab12-pSer106; assay: Western Blot, HEK293 cells co-expressing HA-Rab12 and LRRK2 variants; format: cell-based, human; settings: 100 nM; HEK293 co-overexpressing HA-Rab12 and LRRK2 WT, G2019S or R1441C
Experimental: Plasmids encoding various LRRK2 and Rab GTPase protein variants were transiently expressed in HEK293 cells using Lipofectamine®2000 according to the manufacturer’s instructions (Thermo Fisher Scientific, US).
HEK293 cells were plated at a density of 1 × 10^6 cells/well in 6-well plates pre-coated for 1 hr at 37 °C with poly-L-lysin. Subsequent to the transient transfection HEK293 cells were harvested using 1 mL cold Phosphate Buffered Saline (PBS) buffer (Invitrogen, California, US) and subsequently centrifuged at 800 g for 2 minutes. Cell pellets were resuspended and solubilized in 100 µL lysis buffer (50 mM Tris hydrochloride, 1 mM magnesium chloride, 1% Triton, 0.1% sodium dodecyl sulfate (SDS), pH 8.0) on ice for 20 minutes and then centrifuged at 20,000 g for 30 minutes at 4 °C. The solubilized crude cell lysate was size mobility separated by SDS-polyacrylamide gel electrophoresis (SDS-PAGE). LRRK2 was separated on a 3–8% Tris-Acetate gel (NuPAGE® Tris-Acetate Mini Gels, Life Technologies, Paisley, UK) and Rab10 and Rab12 were separated using a NuPAGE® Novex 4–12% Bis-Tris Gel (Invitrogen, California, US). An amount of 10 µg total protein was loaded in each well. Proteins were transferred to immobilon-FL PVDF membranes (Millipore, Billerica, US).

[3] = test system: T2, TEC; assay: KiNativ profiling in human PBMCs; format: binding; settings: Activation Loop
T2 construct: purchased ActivX Technologies (KiNativ)

[4] = test system: T3, ZC2/TNIK; assay: KiNativ profiling in human PBMCs; format: binding; settings: Lys1
T3 construct: purchased ActivX Technologies (KiNativ)

[5] = test system: T4, PIP4K2B; assay: KiNativ profiling in human PBMCs; format: binding; settings: ATP
T4 construct: purchased ActivX Technologies (KiNativ)

[6] = test system: T5, TGFbR2; assay: KiNativ profiling in human PBMCs; format: binding; settings: Lys2
T5 construct: purchased ActivX Technologies (KiNativ)

[7] = test system: T6, FYN; assay: KiNativ profiling in human PBMCs; format: binding; settings: Lys1
T6 construct: purchased ActivX Technologies (KiNativ)

[8] = test system: T7, PHKg2; assay: KiNativ profiling in human PBMCs; format: binding; settings: Lys1
T7 construct: purchased ActivX Technologies (KiNativ)

[9] = test system: T8, EphA1; assay: KiNativ profiling in human PBMCs; format: binding; settings: Activation Loop
T8 construct: purchased ActivX Technologies (KiNativ)

[10] = test system: T9, PEK; assay: KiNativ profiling in human PBMCs; format: binding; settings: Lys2
T9 construct: purchased ActivX Technologies (KiNativ)

[11] = test system: T10, MPSK1; assay: KiNativ profiling in human PBMCs; format: binding; settings: Lys1
T10 construct: purchased ActivX Technologies (KiNativ)

[12] = test system: T11, GAK; assay: KiNativ profiling in human PBMCs; format: binding; settings: Lys2
T11 construct: purchased ActivX Technologies (KiNativ)

`Cc1cccc(-c2cc(Nc3ccn(C)n3)nc3[nH]cc(C#N)c23)c1` [Lu AF58786] was tested, and the “total LRRK2 protein levels” value [1] was “significantly lowers” and the “phosphorylation of Rab12 (pSer106)” value [2] was “statistically significant reduction”.

For `Cn1cc(-c2c[nH]c3ncnc(N4CCOCC4)c23)cc1C#N` [PFE-360], the “% Inhibition” value ([3]; 0.1µM) was -3.8%, the “% Inhibition” value ([3]; 1µM) was 9.2% and the “% Inhibition” value ([4]; 0.1µM) was -31.6%. For the same compound, the “% Inhibition” value ([4]; 1µM) was 12.3%, the “% Inhibition” value ([5]; 0.1µM) was 6.9% and the “% Inhibition” value ([5]; 1µM) was 22.6%. The “% Inhibition” value ([6]; 0.1µM) was -5.4%, the “% Inhibition” value ([6]; 1µM) was -16.3% and the “% Inhibition” value ([7]; 0.1µM) was -23.9%. The “% Inhibition” value ([7]; 1µM) was -19%, the “% Inhibition” value ([8]; 0.1µM) was -21.5% and the “% Inhibition” value ([8]; 1µM) was -15.8%. For the same compound, the “% Inhibition” value ([9]; 0.1µM) was -12.8%, the “% Inhibition” value ([9]; 1µM) was -26.9% and the “% Inhibition” value ([10]; 0.1µM) was 10.6%. For the same compound, the “% Inhibition” value ([10]; 1µM) was 17.3%, the “% Inhibition” value ([11]; 0.1µM) was 5.5% and the “% Inhibition” value ([11]; 1µM) was -27.6%. The “% Inhibition” value ([12]; 0.1µM) was -12.4% and the “% Inhibition” value ([12]; 1µM) was -36.6%.
